# Assay results as given in patent publication US20230313199A1, “TARGET FOR MODULATING BODY MASS” (Massachusetts Institute of Technology, priority 2020, published 2023).
# Legend:
# MFSD7C and SERCA2b = biological target: T1, MFSD7C and SERCA2b (Mus musculus, UniProt Q91X85); assay: Co-IP of MFSD7C and SERCA2b in transfected 293T cells; assay type: cell-based, murine; details: 293T cells in the presence of MG132, heme for one hour
# T1 construct: expressed in transfected cells; called 293T
# Description: FIGS. 5A-5F show MFSD7C and heme regulate thermogenesis through SERCA2b in THP-1 cells. […] 30 hours later, MG132 was added into half of the cells and the other half was not treated. Another 35 hours later, some cells were treated with 40 μM heme for 1 hour before lysis. Cell lysates were immunoprecipitated with anti-FLAG antibody, and eluted, followed by anti-HA immunoprecipitation and elution. Total cell lysate and elute were subjected to Western blotting and probed with anti-SERCA2b or anti-MFSD7C antibodies. Shown are representative data from one of three experiments. […] 24 hrs later, cells were either not treated or treated with 10 μM MG132 for either 6 or 12 hours. The cells were lysed and subjected to FLAG pull-down and blotted with anti-MFSD7C, anti-SERCA2b and anti-ubiquitin antibodies. Shown are representative data from one of three experiments. […] Parental THP-1 cells were either not treated or treated with heme before lysis. Shown are representative data from one of four experiments. […] Shown are representative data from one of two experiments. […] Cells were washed and treated with 40 μM heme for one hour before flow cytometry. Representative FPT histograms from one of three experiments are shown. […] Shown are representative FPT histograms from one of three experiments. […]
# [1] = biological target: T2, endogenous MFSD7C and HMOX1 (Mus musculus, UniProt Q91X85); assay: Co-IP of endogenous MFSD7C and HMOX1 in bone marrow-derived macrophages; assay type: cell-based; details: heme treatment
# T2 construct: Co-IP and immunoblotting analysis of endogenous MFSD7C with ATP5h, SERCA2b and HMOX1 in bone marrow-derived macrophages; endogenous in cells; host or cells: bone marrow-derived macrophages from Mfsd7c fl/fl C57BL/6 mice
# Description: NTD was incubated with heme and run on Superdex 75 gel filtration column. The flow through was measured for absorbance at 230 nm (gray), 380 nm (blue), and 415 nm (green). Absorbance intensity was normalized to maximum value. […] Heme (100 μM) absorption was set to zero. […] Wildtype (WT) and mutant (Mut) peptide sequences are shown. […] Shown are representative data from five separate experiments. […] Shown are immunoblots of MFSD7C, ATP5h, SERCA2b, and HMOX1 on whole lysates or immunoblots of MFSD7C on anti-ATP5h, anti-SERCA2b and anti-HMOX1 immunoprecipitates. Representative data from one from three experiments are shown. […] Shown are representative data from three separate experiments. WCE: whole cell extract, Sup: supernatant, Mito: 10,000 g mitochondrial fraction. […] THP-1 cells were stained with MitoTracker (green), fixed and permeabilized, and then stained with rabbit polyclonal antibody specific for the C-terminus of MFSD7C, followed with Alexa Fluor® 594-labelled goat anti-rabbit antibody (red). Nuclei were labeled using DAPI (blue). […]
# Differentiation of bone marrow-derived macrophage (BMDM). […] Cells were resuspended in DMEM media containing 10% FBS, 2 mM L-glutamine, 2 mM pyruvate, non-essential amino acids (100 μM each), 0.55 mM 2-mercaptoethanol, penicillin/streptomycin), passed through a 40 μm Falcon cell strainer (VWR) to remove large aggregates, and counted. […]
# HP motif peptide = biological target: T3, HP motif peptide (Homo sapiens, UniProt Q9UPI3); assay: Heme absorbance-shift assay with wild-type HP motif peptide; assay type: binding; details: 100 μM heme, various concentrations of HP motif peptide
# T3 construct: a synthetic 14-amino acid HP motif peptide; made in house; host or cells: chemical solid-phase synthesis (Koch Institute Biopolymers & Proteomics Core)
# Description: Peptide synthesis. Wild-type HP motif peptide (HPSALAQPSGLAHP) and mutant HP motif peptide (APSALAQPSGLAAP) were synthesized using solid-phase synthesis and purified using HPLC by the Biopolymers & Proteomics Core at the Koch Institute for Integrative Cancer Research.
# Heme absorbance-shift assay. Hemin was prepared fresh before each experiment. Approximately 20 mg of hemin (Sigma) was placed in a fresh tube and resuspended with 1 mL of DMSO. The hemin solution was slowly diluted while mixing with 1 mL of 2× buffer C (25 mM HEPES-NaOH pH 7.8, 10 mM NaCl), and aggregated hemin was eliminated by passing the solution through a 0.2 μm filter unit. Hemin concentration was determined by diluting the filtered solution with 1× buffer C 1:100 and using the extinction coefficient of 58,400 cm^−1M^−1 at 385 nm. For each reaction, the 200 μL reaction mix containing 100 μM hemin, 25 mM HEPES-NaOH pH 7.8, 10 mM NaCl, and various concentrations of wild-type or mutant NTD protein, was placed in a transparent 96-well plate. Absorbance intensity was measured using Tecan Infinite M200 Pro microplate reader, between 330 and 550 nm using 5 nm steps. The absorbance intensity for dissolved hemin was subtracted from absorbance intensity from hemin incubated with various concentrations of protein.
# T2 sequence (Q91X85 whole entry): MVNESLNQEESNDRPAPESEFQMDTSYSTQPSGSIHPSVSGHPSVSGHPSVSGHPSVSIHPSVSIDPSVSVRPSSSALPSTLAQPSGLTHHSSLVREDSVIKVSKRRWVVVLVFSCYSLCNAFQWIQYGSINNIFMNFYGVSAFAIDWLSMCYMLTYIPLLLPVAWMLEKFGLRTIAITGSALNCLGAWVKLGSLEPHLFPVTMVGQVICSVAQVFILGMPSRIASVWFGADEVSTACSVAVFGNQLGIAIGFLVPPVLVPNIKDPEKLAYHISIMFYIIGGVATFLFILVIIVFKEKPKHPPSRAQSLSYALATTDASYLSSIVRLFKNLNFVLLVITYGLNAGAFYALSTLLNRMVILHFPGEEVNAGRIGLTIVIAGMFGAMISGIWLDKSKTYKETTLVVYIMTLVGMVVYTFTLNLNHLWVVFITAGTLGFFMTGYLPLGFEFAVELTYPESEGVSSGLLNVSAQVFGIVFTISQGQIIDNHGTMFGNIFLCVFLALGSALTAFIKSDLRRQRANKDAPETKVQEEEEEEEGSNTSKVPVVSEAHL
# T2 sequence (P14901 whole entry partner): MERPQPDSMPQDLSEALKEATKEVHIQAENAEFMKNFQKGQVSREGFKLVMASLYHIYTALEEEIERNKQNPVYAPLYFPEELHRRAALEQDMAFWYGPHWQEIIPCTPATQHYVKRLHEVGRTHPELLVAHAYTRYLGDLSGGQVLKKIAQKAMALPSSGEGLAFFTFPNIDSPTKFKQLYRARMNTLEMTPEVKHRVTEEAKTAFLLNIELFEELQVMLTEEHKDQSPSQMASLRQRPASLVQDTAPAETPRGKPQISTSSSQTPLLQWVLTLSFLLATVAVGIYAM
# T1 sequence (Q91X85 whole entry): as the sequence (Q91X85 whole entry) above
smiles,measurement,setting,value
C=CC1=C(C)c2cc3[n-]c(cc4[n-]c(cc5nc(cc1n2)C(C)=C5C=C)c(C)c4CCC(=O)O)c(CCC(=O)O)c3C.[Fe+2] [heme],co-IP of SERCA2b with MFSD7C,MFSD7C and SERCA2b,abolished
same,interactions between endogenous MFSD7C and HMOX1 (co-IP),[1],enhanced
same,"absorbance shift of heme (Soret band, Q band)",HP motif peptide,concentration-dependent increase in Soret band and Q band peaks
